The values that follow are results of earlier work, collected in patent publication US7723019B2, “Organic cation transporter preferentially expressed in hematopoietic cells and leukemias and uses thereof” (University of Kentucky Research Foundation, priority 2003, dated 2010).

Where “and” joins values, the source holds several entries; their conditions need not be identical. Identical values can stand only once. Like-named read-outs stand apart in the source and are kept apart here.

The target of one data set is T1, OCTN1 (SLC22A4) (Homo sapiens, UniProt Q9H015).
T1 sequence (Q9H015 1-551): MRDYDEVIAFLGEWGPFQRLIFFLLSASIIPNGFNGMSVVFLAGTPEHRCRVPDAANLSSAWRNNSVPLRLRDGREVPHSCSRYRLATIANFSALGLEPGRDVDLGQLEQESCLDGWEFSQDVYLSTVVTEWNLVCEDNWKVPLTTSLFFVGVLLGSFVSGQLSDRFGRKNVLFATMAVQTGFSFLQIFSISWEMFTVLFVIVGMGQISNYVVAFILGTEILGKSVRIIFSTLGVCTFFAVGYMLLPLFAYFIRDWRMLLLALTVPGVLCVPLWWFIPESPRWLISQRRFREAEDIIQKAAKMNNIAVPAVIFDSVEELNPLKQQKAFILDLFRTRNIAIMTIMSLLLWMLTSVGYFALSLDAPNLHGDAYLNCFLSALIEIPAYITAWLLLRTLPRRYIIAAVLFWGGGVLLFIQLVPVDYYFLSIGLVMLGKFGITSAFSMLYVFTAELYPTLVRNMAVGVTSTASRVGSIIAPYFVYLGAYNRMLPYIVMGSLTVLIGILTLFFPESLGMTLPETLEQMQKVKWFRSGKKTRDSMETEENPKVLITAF
The settings on record: OCTN1, cell type Fibroblasts.

In another data set the target is T2, OCTN2 (SLC22A5) (Homo sapiens, UniProt O76082).
T2 sequence (O76082 1-557): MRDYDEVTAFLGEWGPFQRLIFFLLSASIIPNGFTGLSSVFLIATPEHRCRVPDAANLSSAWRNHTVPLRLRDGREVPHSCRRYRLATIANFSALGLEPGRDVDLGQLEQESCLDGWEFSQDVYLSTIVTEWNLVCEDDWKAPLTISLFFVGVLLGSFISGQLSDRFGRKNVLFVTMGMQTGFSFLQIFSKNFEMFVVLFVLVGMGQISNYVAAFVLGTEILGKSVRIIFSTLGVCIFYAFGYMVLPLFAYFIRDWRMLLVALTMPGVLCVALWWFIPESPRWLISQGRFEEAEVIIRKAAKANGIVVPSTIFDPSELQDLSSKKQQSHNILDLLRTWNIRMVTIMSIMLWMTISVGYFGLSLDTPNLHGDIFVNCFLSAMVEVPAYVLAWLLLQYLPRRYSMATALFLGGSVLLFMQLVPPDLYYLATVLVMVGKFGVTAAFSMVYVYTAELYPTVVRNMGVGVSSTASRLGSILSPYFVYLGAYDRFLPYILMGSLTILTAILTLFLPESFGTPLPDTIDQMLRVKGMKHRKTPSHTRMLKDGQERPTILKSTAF

The target of another data set is T3, OCT2 (SLC22A2) (Homo sapiens, UniProt O15244).
T3 sequence (O15244 1-555): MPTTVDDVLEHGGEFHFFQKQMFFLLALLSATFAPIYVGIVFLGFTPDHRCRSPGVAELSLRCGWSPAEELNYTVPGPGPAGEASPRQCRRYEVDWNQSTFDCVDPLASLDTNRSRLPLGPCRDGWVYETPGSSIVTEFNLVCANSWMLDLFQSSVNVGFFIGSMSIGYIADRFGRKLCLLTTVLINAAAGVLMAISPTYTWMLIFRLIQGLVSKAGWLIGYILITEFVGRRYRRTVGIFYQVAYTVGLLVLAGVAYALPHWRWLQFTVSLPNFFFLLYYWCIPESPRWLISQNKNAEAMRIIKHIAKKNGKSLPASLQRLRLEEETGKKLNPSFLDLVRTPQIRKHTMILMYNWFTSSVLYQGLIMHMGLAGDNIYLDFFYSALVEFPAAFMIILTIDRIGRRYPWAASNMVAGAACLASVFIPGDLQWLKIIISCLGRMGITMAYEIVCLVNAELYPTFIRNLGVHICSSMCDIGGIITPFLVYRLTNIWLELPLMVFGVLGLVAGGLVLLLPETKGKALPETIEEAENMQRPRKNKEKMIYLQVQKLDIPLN

In a further data set the target is T4, OCT1 (SLC22A1) (Homo sapiens, UniProt O15245).
T4 construct: host or cells: HeLa; Xenopus
T4 sequence (O15245 1-554): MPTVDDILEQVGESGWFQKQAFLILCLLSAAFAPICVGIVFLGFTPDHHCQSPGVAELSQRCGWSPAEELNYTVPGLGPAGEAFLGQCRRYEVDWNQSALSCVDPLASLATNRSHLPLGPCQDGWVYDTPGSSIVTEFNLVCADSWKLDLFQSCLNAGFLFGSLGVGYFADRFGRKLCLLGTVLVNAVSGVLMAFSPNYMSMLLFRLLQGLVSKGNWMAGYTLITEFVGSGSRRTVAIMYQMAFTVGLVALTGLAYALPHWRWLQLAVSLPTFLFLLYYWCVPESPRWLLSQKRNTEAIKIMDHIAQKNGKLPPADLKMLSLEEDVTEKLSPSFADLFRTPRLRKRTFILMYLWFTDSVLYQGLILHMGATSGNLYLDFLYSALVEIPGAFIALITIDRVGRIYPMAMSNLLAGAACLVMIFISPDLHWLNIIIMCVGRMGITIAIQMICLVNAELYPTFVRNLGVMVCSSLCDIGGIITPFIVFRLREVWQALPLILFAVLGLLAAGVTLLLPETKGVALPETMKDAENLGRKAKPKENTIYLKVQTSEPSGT
The settings on record: OCT1, cell type Xenopus.

Data set [1] concerns RFC1-transfected MTX^R ZR75 cell line. To be noted: RFC1 transfection into transport-deficient MTX^R ZR75 cells, relative to control cell clones.
Data set [2] concerns reduced folate carrier (RFC). The settings on record: read-out: Km for MTX, approximately.

For `CC[N+](CC)(CC)CC` [TEA, tetraethylammonium], the KT in the data set on OCT3 (SLC22A3) (OCT3, cell type HeLa) was 2500 µM.
On to `C[N+](C)(C)C[C@H](O)CC(=O)[O-]` [L-Carnitine], for which the KT is 6.6 µM on OCTN1 (SLC22A4); 4.34 µM and 4.3 µM on OCTN2 (SLC22A5) (OCTN2, cell type HEK293); 3.5 µM at OCTN2 (SLC22A5) (OCTN2, cell type JAR); 4.8 µM on OCTN2 (SLC22A5) (OCTN2, cell type Xenopus).
For the compound `NCCc1c[nH]cn1` [Histamine], the KT on OCT2 (SLC22A2) (OCT2, cell type Xenopus) was 1300 µM.
For the compound `NCCc1c[nH]c2ccc(O)cc12` [Serotonin], the KT on OCT2 (SLC22A2) (OCT2, cell type Xenopus) is 80 µM.
Take `CC12CC3CC(C)(C1)CC(N)(C3)C2` [Memantine]: the KT at OCT2 (SLC22A2) (OCT2, cell type Xenopus) was 34 µM.
As for `C[N+](C)(C)C[C@@H](O)CC(=O)[O-]` [D-Carnitine], the KT at OCTN2 (SLC22A5) (OCTN2, cell type HEK293) is 10.9 µM; on OCTN2 (SLC22A5) (OCTN2, cell type Xenopus), 98 µM.
In the case of `NC[C@H](O)c1ccc(O)c(O)c1` [Norepinephrine], at OCT2 (SLC22A2) (OCT2, cell type Xenopus), the KT is 1900 µM.
Take `NC12CC3CC(CC(C3)C1)C2` [Amantadine]: the KT at OCT2 (SLC22A2) (OCT2, cell type Xenopus) was 27 µM.
As for `NCCc1ccc(O)c(O)c1` [Dopamine], the KT at OCT2 (SLC22A2) (OCT2, cell type HEK293) was 330 µM; on OCT2 (SLC22A2) (OCT2, cell type Xenopus) it was 390 µM.
Regarding `CC(=O)O[C@H](CC(=O)[O-])C[N+](C)(C)C` [Acetyl-L-carnitine], the KT on OCTN2 (SLC22A5) (OCTN2, cell type HEK293) was 8.5 µM.
Consider `C[n+]1ccc(-c2ccccc2)cc1` [MPP, 1-methyl-4-phenylpyridinium], for which the KT on OCT2 (SLC22A2) (OCT2, cell type HEK293) is 16 µM; on OCT1 (SLC22A1), 14.6 µM; in the data set on OCT3 (SLC22A3) (OCT3, cell type HRPE), 47 µM.
As to `CN(Cc1cnc2nc(N)nc(N)c2n1)c1ccc(C(=O)N[C@@H](CCC(=O)O)C(=O)O)cc1` [MTX, Methotrexate], in data set [1], the “increase in 6-hour MTX uptake” value was 20 fold and the “increase in sensitivity to MTX” value was 250 fold. Moreover, in data set [2], the Km (as a rule, the substrate concentration at which the rate is half of its maximum) was 0.8 to 26 µM.
